We go through nine compounds from ChEMBL document CHEMBL1201862, “PubChem BioAssay data set” (2004).

Test systems include MDA-N; CAKI-1; HCT-15; UACC-62; T47D; Malme-3M; SK-MEL-2; OVCAR-4; SNB-19; HCT-116; MDA-MB-435; UACC-257; SF-268; M14; CCRF-CEM; 786-0.
Common to all, as to assay: DTP human tumour cell line panel, 48 h

One may read the GI50 as the concentration that inhibits growth by half.

SMILES strings stand for the structures.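 Tested at 5 concentrations; 48 h exposure; 96-well plates; endpoints linearly interpolated, else capped at highest concentration. GI50: concentration for 50% inhibition of growth.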 Active and inactive are the calls of the source. Rule as the data show it: active = GI50 up to about 1.1 µM and inactive = higher.

As to `Cc1cc(N(CCC#N)CCC#N)ccc1C(/N=N/c1ccc(C(=O)O)cc1)=N\NC(=O)c1ccccc1`, the GI50 was 4.31 µM (inactive) in the assay on MDA-N; > 100 µM (inactive) in the assay on CAKI-1; 20.9 µM with HCT-15; 39.8 µM (inactive) in the assay on UACC-62; 43.8 µM (inactive) in the assay on T47D; 22.5 µM (inactive) with Malme-3M. For the same compound, the GI50 in the assay with SK-MEL-2 is > 100 µM (inactive); in the assay with OVCAR-4, > 100 µM (inactive); in the assay with SNB-19 it was 50.8 µM (inactive); in the assay on HCT-116 it was 35 µM (inactive); in the assay with MDA-MB-435, 3.94 µM (inactive); in the assay with UACC-257 it was 65.2 µM (inactive). Further, the GI50 with SF-268 was 53.8 µM (inactive); in the assay with M14, 36.6 µM (inactive); in the assay with CCRF-CEM, 30.4 µM (inactive); with 786-0 it was 41.3 µM (inactive).
As for `CN(C)CCNc1ccc2c(=O)n(CCN(C)C)c(=O)n3c4ccc(O)cc4c(=O)c1c23`, the GI50 in the assay with MDA-N is 0.0356 µM (active); in the assay on CAKI-1 it was < 0.01 µM (active); in the assay on HCT-15 it was 0.045 µM; in the assay on UACC-62 it was < 0.0128 µM (active); in the assay with T47D it was < 0.0165 µM (active); in the assay on Malme-3M, 0.0569 µM (active). In addition, the GI50 in the assay on SK-MEL-2 is 0.226 µM (active); in the assay on OVCAR-4, 0.106 µM (active); in the assay on SNB-19 it was < 0.0212 µM (active); with HCT-116, < 0.01 µM (active); in the assay on MDA-MB-435 it was 0.0711 µM (active); in the assay with UACC-257, 0.149 µM (active). Further, the GI50 in the assay with SF-268 was < 0.0134 µM (active); with M14 it was < 0.034 µM (active); in the assay with CCRF-CEM, < 0.01 µM (active); with 786-0 it was < 0.01 µM (active).
With `Clc1cc(-c2ccccc2)nc2ccccc12`, the GI50 with MDA-N is 26 µM (inactive); with CAKI-1 it was 33.9 µM (inactive); in the assay with HCT-15, 16 µM; in the assay with UACC-62, 42.6 µM (inactive); in the assay with T47D, 31.3 µM (inactive); in the assay with Malme-3M, 38 µM (inactive). Moreover, the GI50 with SK-MEL-2 was 19.1 µM (inactive); with OVCAR-4 it was 20.7 µM (inactive); with SNB-19, 88.7 µM (inactive); with HCT-116, 32.5 µM (inactive); in the assay with MDA-MB-435 it was 26.2 µM (inactive); in the assay on UACC-257 it was 34.8 µM (inactive). Moreover, the GI50 with SF-268 was 44.9 µM (inactive); in the assay with M14, 37.6 µM (inactive); in the assay on CCRF-CEM it was 23.8 µM (inactive); with 786-0, 39.5 µM (inactive).
For the compound `O=[N+]([O-])c1ccc(N/N=C/c2ccc(OCCCCCCCCCCCO)cc2)c([N+](=O)[O-])c1`, the GI50 with MDA-N was 3.58 µM (inactive); with CAKI-1, 3.34 µM (inactive); in the assay on HCT-15 it was 9.12 µM; in the assay with UACC-62 it was 2.32 µM (inactive); in the assay on T47D, 5.22 µM (inactive); with Malme-3M, 1.72 µM (inactive). The GI50 is 10.3 µM (inactive) with SK-MEL-2; 4.13 µM (inactive) in the assay on OVCAR-4; 6.12 µM (inactive) with SNB-19; 17.4 µM (inactive) in the assay with HCT-116; 2.48 µM (inactive) with MDA-MB-435; 4.91 µM (inactive) in the assay on UACC-257. The GI50 is 2.84 µM (inactive) with SF-268, 1.39 µM (inactive) in the assay on M14, 3.91 µM (inactive) in the assay on CCRF-CEM and 1.91 µM (inactive) in the assay on 786-0.
As to `C=C(C1=CC(=O)C(C)(C)O1)[C@@H]1CC=C([C@@H]2CC[C@H]3[C@@]2(C)CC[C@H]2C(C)(C)C(=O)[C@H](O)C[C@]32C)[C@H](O)O1`, the GI50 in the assay with MDA-N was 1.67 µM (inactive); in the assay on CAKI-1 it was 3.89 µM (inactive); in the assay with HCT-15, 2.04 µM; with UACC-62 it was 4.88 µM (inactive); in the assay on T47D it was 1.44 µM (inactive); in the assay on Malme-3M, 2.35 µM (inactive). Besides, the GI50 in the assay on SK-MEL-2 is 2.2 µM (inactive); with OVCAR-4 it was 3.11 µM (inactive); in the assay on SNB-19 it was 10.2 µM (inactive); in the assay on HCT-116, 1.63 µM (inactive); in the assay with MDA-MB-435, 2.49 µM (inactive); in the assay on UACC-257, 1.97 µM (inactive). The GI50 in the assay with SF-268 is 1.88 µM (inactive); in the assay with M14, 1.58 µM (inactive); in the assay with CCRF-CEM, 0.729 µM (active); in the assay on 786-0, 0.273 µM (active).
For `CC(NNC(=O)c1ccc[n+]([BH2-]C#N)c1)c1ccccc1` (centres undefined), the GI50 is > 100 µM (inactive) with MDA-N; > 100 µM (inactive) in the assay with CAKI-1; > 100 µM in the assay with HCT-15; > 100 µM (inactive) in the assay with UACC-62; > 100 µM (inactive) in the assay with T47D; > 100 µM (inactive) with Malme-3M. Moreover, the GI50 in the assay with SK-MEL-2, in the assay with OVCAR-4, in the assay on SNB-19, in the assay on HCT-116, in the assay on MDA-MB-435 and in the assay on UACC-257 was > 100 µM (inactive) throughout. Also, the GI50 with SF-268 is > 100 µM (inactive); in the assay on M14, > 100 µM (inactive); in the assay with CCRF-CEM, 78.7 µM (inactive); in the assay with 786-0, > 100 µM (inactive).
As for `N#CCCN(CCC#N)c1ccc(/C=C2\SC(=S)NC2=O)cc1Br`, the GI50 in the assay on MDA-N was > 100 µM (inactive); with CAKI-1 it was > 100 µM (inactive); in the assay with HCT-15, > 100 µM; with UACC-62 it was > 100 µM (inactive); in the assay on T47D it was > 100 µM (inactive); in the assay with Malme-3M it was 16.9 µM (inactive). Also, the GI50 with SK-MEL-2 was > 100 µM (inactive); in the assay with OVCAR-4, 85.1 µM (inactive); in the assay on SNB-19, 23.8 µM (inactive); with HCT-116 it was > 100 µM (inactive); in the assay on MDA-MB-435, > 100 µM (inactive); in the assay with UACC-257 it was > 100 µM (inactive). Besides, the GI50 was 20.9 µM (inactive) in the assay with SF-268, > 100 µM (inactive) with M14, > 100 µM (inactive) in the assay with CCRF-CEM and 37.8 µM (inactive) in the assay on 786-0.
For the compound `O=[N+]([O-])c1ccc(N2CCC(CCCC3CCN(c4ccc([N+](=O)[O-])cc4[N+](=O)[O-])CC3)CC2)c([N+](=O)[O-])c1`, the GI50 with MDA-N is 16.1 µM (inactive); with CAKI-1, 19 µM (inactive); in the assay on HCT-15 it was 18.3 µM; in the assay on UACC-62, 11.9 µM (inactive); in the assay on T47D, 5.64 µM (inactive); in the assay on Malme-3M it was 19.1 µM (inactive). In addition, the GI50 in the assay with SK-MEL-2 is 16.9 µM (inactive); in the assay on OVCAR-4 it was 12.9 µM (inactive); with SNB-19, 16.1 µM (inactive); with HCT-116 it was 26.5 µM (inactive); in the assay on MDA-MB-435, 13.9 µM (inactive); in the assay on UACC-257, 14.6 µM (inactive). Besides, the GI50 in the assay with SF-268 is 20 µM (inactive); in the assay on M14 it was 13.2 µM (inactive); in the assay on CCRF-CEM, 13.7 µM (inactive); in the assay on 786-0, 14.5 µM (inactive).
For `COC(=O)C1([C@@H]2C[C@@H](O)[C@]3(C)CC/C=C(\C)CCC[C@H](C)[C@H](O)[C@@H]2O3)CC1`, the GI50 in the assay with MDA-N was 72.3 µM (inactive); in the assay on CAKI-1, > 100 µM (inactive); with HCT-15 it was 34.9 µM; with UACC-62, 66.8 µM (inactive); in the assay on T47D it was 46.6 µM (inactive); in the assay on Malme-3M, > 100 µM (inactive). Further, the GI50 in the assay on SK-MEL-2 is 73.3 µM (inactive); with OVCAR-4, 45.9 µM (inactive); in the assay with SNB-19, 46.7 µM (inactive); in the assay with HCT-116, 51.2 µM (inactive); in the assay with MDA-MB-435, 77.6 µM (inactive); with UACC-257, 56.1 µM (inactive). Further, the GI50 in the assay on SF-268 is 64.7 µM (inactive); with M14, 53.3 µM (inactive); in the assay with CCRF-CEM it was > 100 µM (inactive); in the assay on 786-0 it was 92.3 µM (inactive).
